Laboratory results: ChEMBL document CHEMBL4346671, “Synthesis and bioevaluation of diarylpyrazoles as antiproliferative agents” (Eur J Med Chem, 2019)
Active and inactive are the calls of the source. No cut-off for these calls is given here.

Tests used:
KB = assay: Antiproliferative activity against human KB cells measured after 72 hrs by MTT assay; type: functional, cell-based
SGC-7901 [1] = assay: Antiproliferative activity against human SGC7901 cells measured after 72 hrs by MTT assay; type: functional, cell-based; details: SGC-7901, 72 h
HT-1080 = assay: Antiproliferative activity against human HT1080 cells measured after 72 hrs by MTT assay; type: functional, cell-based; details: HT-1080, 72 h
SGC-7901 [2] = assay: Cell cycle arrest in human SGC7901 cells assessed as increase in cell population at sub-G1 phase at 2 fold IC50 concentration measured after 48 hrs by propidium iodide staining based FACScan flow cytometry; type: functional
SGC-7901 [3] = assay: Cell cycle arrest in human SGC7901 cells assessed as increase in cell population at G2/M phase at 2 fold IC50 concentration measured after 12 hrs by propidium iodide staining based FACScan flow cytometry; type: functional
SGC-7901 [4] = assay: Cell cycle arrest in human SGC7901 cells assessed as increase in cell population at sub-G1 phase at 2 fold IC50 concentration measured after 36 hrs by propidium iodide staining based FACScan flow cytometry; type: functional
SGC-7901 [5] = assay: Induction of polyploidy in human SGC7901 cells at 2 fold IC50 concentration measured after 72 hrs by propidium iodide staining based FACScan flow cytometry; type: functional, cell-based
SGC-7901 [6] = assay: Cell cycle arrest in human SGC7901 cells assessed as increase in cell population at G2/M phase at 2 fold IC50 concentration measured after 24 hrs by propidium iodide staining based FACScan flow cytometry; type: functional
Tubulin = Tubulin (Sus scrofa, UniProt P02554+P02550); assay: Inhibition of porcine brain tubulin polymerization preincubated before GTP addition and measured at 1 min intervals for 90 mins by fluorescence based assay
SGC-7901 [7] = assay: Cell cycle arrest in human SGC7901 cells assessed as increase in cell population at sub-G1 phase at 2 fold IC50 concentration measured after 72 hrs by propidium iodide staining based FACScan flow cytometry; type: functional
Tubulin (Homo sapiens) [8] = target: T1, Tubulin (Homo sapiens) (UniProt P68371+Q9H4B7+P0DPH7+P68366+Q13509+Q71U36+P04350+Q3ZCM7+P07437+P68363+Q9BQE3+Q6PEY2+Q13885+Q9BVA1+Q9BUF5); assay: Induction of microtubule depolymerization in human SGC7901 cells assessed as change in microtubule morphology at 2 fold antiproliferative IC50 measured after 24 hrs by DAPI staining based fluorescence microscopy; type: cell-based
Tubulin (Homo sapiens) [9] = target: T1, Tubulin (Homo sapiens); assay: Inhibition of microtubule formation in human SGC7901 cells at 2 fold IC50 concentration measured after 24 hrs by DAPI staining based fluorescence microscopy; type: cell-based
SGC-7901 [10] = assay: Cell cycle arrest in human SGC7901 cells assessed as decrease in cell population at G2/M phase at 2 fold IC50 concentration measured after 72 hrs by propidium iodide staining based FACScan flow cytometry; type: functional
SGC-7901 [11] = assay: Cell cycle arrest in human SGC7901 cells assessed as decrease in cell population at G2/M phase at 2 fold IC50 concentration measured after 36 hrs by propidium iodide staining based FACScan flow cytometry; type: functional
Tubulin (Homo sapiens) [12] = target: T1, Tubulin (Homo sapiens); assay: Inhibition of microtubule formation in human SGC7901 cells assessed as mitotic catastrophe at 2 fold IC50 concentration measured after 24 hrs by DAPI staining based fluorescence microscopy; type: cell-based
SGC-7901 [13] = assay: Cell cycle arrest in human SGC7901 cells assessed as decrease in cell population at G2/M phase at 2 fold IC50 concentration measured after 48 hrs by propidium iodide staining based FACScan flow cytometry; type: functional
Tubulin (Sus scrofa) [14] = target: T2, Tubulin (Sus scrofa) (UniProt P02554+P02550); assay: Inhibition of porcine brain tubulin polymerization at 3 to 20 uM preincubated before GTP addition and measured at 1 min intervals for 90 mins by fluorescence based assay
SGC-7901 [15] = assay: Cell cycle arrest in human SGC7901 cells assessed as accumulation of cell population in G2/M phase at 2 fold IC50 concentration for 12 to 72 hrs by propidium iodide staining based FACScan flow cytometry; type: functional; details: TDE = time-dependent effect
Tubulin (Sus scrofa) [16] = target: T2, Tubulin (Sus scrofa); details: 4 uM
Description: Inhibition of porcine brain tubulin polymerization at 4 uM preincubated before GTP addition and measured at 1 min intervals for 90 mins by fluorescence based assay

T2 sequence (P02550 whole entry, looked up): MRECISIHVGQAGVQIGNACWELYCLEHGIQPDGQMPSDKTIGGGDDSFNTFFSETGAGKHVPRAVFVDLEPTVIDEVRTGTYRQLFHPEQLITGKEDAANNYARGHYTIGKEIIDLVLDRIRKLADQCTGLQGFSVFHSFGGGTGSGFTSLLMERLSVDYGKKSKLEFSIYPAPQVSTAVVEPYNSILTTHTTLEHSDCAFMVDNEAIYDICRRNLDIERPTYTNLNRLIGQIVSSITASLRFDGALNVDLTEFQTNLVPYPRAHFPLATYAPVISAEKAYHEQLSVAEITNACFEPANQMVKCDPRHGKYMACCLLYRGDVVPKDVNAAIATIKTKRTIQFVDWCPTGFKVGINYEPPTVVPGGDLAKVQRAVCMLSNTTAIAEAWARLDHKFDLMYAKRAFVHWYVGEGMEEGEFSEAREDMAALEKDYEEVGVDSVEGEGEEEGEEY
T2 sequence (P02554 whole entry, looked up): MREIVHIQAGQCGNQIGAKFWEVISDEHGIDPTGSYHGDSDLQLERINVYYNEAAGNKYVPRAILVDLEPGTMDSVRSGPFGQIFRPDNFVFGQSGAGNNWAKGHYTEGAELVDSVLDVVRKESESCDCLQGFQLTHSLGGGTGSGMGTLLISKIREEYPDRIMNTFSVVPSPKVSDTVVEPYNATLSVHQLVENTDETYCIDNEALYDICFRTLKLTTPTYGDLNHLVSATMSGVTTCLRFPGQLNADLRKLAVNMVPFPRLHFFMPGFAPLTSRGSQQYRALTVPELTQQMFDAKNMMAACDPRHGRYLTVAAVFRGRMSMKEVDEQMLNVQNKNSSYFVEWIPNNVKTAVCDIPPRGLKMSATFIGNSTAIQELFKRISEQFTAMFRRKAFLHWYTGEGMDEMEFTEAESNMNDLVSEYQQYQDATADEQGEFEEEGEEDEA

COc1ccc(-c2[nH]ncc2-c2cc(OC)c(OC)c(OC)c2)cc1O
IC50 (KB): 60 nM | IC50 (SGC-7901 [1]): 32 nM | IC50 (HT-1080): 23 nM

CCOc1ccc(-c2cnn(C(C)=O)c2-c2cc(OC)c(OC)c(OC)c2)cc1
IC50 (KB): 36 nM | IC50 (SGC-7901 [1]): 15 nM | IC50 (HT-1080): 19 nM

COc1ccc(-c2c(-c3cc(OC)c(OC)c(OC)c3)cnn2C(C)=O)cc1O
Activity (SGC-7901 [2]): Active | IC50 (KB): 22 nM | Activity (SGC-7901 [3]): Active | Activity (SGC-7901 [4]): Active | IC50 (SGC-7901 [1]): 9.3 nM | Activity (SGC-7901 [5]): Active | Activity (SGC-7901 [6]): Active | IC50 (HT-1080): 12 nM | IC50 (Tubulin): 7730 nM | Activity (SGC-7901 [7]): Active | Activity (Tubulin (Homo sapiens) [8]): Active | inhibition (Tubulin (Homo sapiens) [9]): Active | Activity (SGC-7901 [10]): Active | Activity (SGC-7901 [11]): Active | inhibition (Tubulin (Homo sapiens) [12]): Active | Activity (SGC-7901 [13]): Active | inhibition (Tubulin (Sus scrofa) [14]): Dose-dependent effect | Activity (SGC-7901 [15]): Tde

COc1cc(-c2n[nH]cc2-c2ccc(O)cc2)cc(OC)c1OC
IC50 (KB): 8470 nM | IC50 (SGC-7901 [1]): 15400 nM | IC50 (HT-1080): 10000 nM

COc1ccc(/C=C\c2cc(OC)c(OC)c(OC)c2)cc1O [COMBRETASTATIN A4]
IC50 (KB): 250 nM | Activity (SGC-7901 [3]): Active | IC50 (SGC-7901 [1]): 130 nM | Activity (SGC-7901 [6]): Active | IC50 (HT-1080): 51 nM | Activity (Tubulin (Homo sapiens) [8]): Active | inhibition (Tubulin (Sus scrofa) [16]): Active

COc1ccc(-c2c(-c3cc(OC)c(OC)c(OC)c3)cnn2C(C)=O)cc1OC
IC50 (KB): 700 nM | IC50 (SGC-7901 [1]): 2030 nM | IC50 (HT-1080): 1210 nM

COc1ccc(-c2cnn(C(C)=O)c2-c2cc(OC)c(OC)c(OC)c2)cc1OCc1ccccc1
IC50 (KB): 6720 nM | IC50 (SGC-7901 [1]): 10400 nM | IC50 (HT-1080): 12200 nM

COc1ccc(-c2cnn(C(C)=O)c2-c2cc(OC)c(OC)c(OC)c2)cc1
IC50 (KB): 28 nM | IC50 (SGC-7901 [1]): 13 nM | IC50 (HT-1080): 96 nM

COc1ccc(-c2cnn(C(C)=O)c2-c2cc(OC)c(OC)c(OC)c2)cc1O
IC50 (KB): 33 nM | IC50 (SGC-7901 [1]): 15 nM | IC50 (HT-1080): 17 nM

COc1cc(-c2n[nH]cc2-c2ccc(OC(F)(F)F)cc2)cc(OC)c1OC
IC50 (KB): 2870 nM | IC50 (SGC-7901 [1]): 1340 nM | IC50 (HT-1080): 1340 nM

CCOc1ccc(-c2c[nH]nc2-c2cc(OC)c(OC)c(OC)c2)cc1
IC50 (KB): 35 nM | IC50 (SGC-7901 [1]): 30 nM | IC50 (HT-1080): 17 nM

COc1ccc(-c2c[nH]nc2-c2cc(OC)c(OC)c(OC)c2)cc1OCc1ccccc1
IC50 (KB): 7100 nM | IC50 (SGC-7901 [1]): 9260 nM | IC50 (HT-1080): 10000 nM

COc1cc(-c2c(-c3ccc(OCc4ccccc4)cc3)cnn2C(C)=O)cc(OC)c1OC
IC50 (KB): 129000 nM | IC50 (SGC-7901 [1]): 14400 nM | IC50 (HT-1080): 44900 nM

COc1ccc(-c2n[nH]cc2-c2cc(OC)c(OC)c(OC)c2)cc1
IC50 (KB): 25 nM | IC50 (SGC-7901 [1]): 44 nM | IC50 (HT-1080): 26 nM

COc1ccc(-c2n[nH]cc2-c2cc(OC)c(OC)c(OC)c2)cc1OC
IC50 (KB): 620 nM | IC50 (SGC-7901 [1]): 3810 nM | IC50 (HT-1080): 1920 nM

COc1cc(-c2c(-c3ccc(OC(F)(F)F)cc3)cnn2C(C)=O)cc(OC)c1OC
IC50 (KB): 10800 nM | IC50 (SGC-7901 [1]): 13700 nM | IC50 (HT-1080): 19500 nM

COc1cccc(-c2c[nH]nc2-c2cc(OC)c(OC)c(OC)c2)c1
IC50 (KB): 1500 nM | IC50 (SGC-7901 [1]): 2200 nM | IC50 (HT-1080): 4070 nM

COc1ccc(-c2n[nH]cc2-c2cc(OC)c(OC)c(OC)c2)cc1OCc1ccccc1
IC50 (KB): 86200 nM | IC50 (SGC-7901 [1]): 28200 nM | IC50 (HT-1080): 20800 nM

COc1cc(-c2c(-c3ccc(O)cc3)cnn2C(C)=O)cc(OC)c1OC
IC50 (KB): 5080 nM | IC50 (SGC-7901 [1]): 4870 nM | IC50 (HT-1080): 2520 nM

COc1ccc(-c2c[nH]nc2-c2cc(OC)c(OC)c(OC)c2)cc1
IC50 (KB): 72 nM | IC50 (SGC-7901 [1]): 180 nM | IC50 (HT-1080): 80 nM

COc1ccc(-c2c(-c3cc(OC)c(OC)c(OC)c3)cnn2C(C)=O)cc1OCc1ccccc1
IC50 (KB): 84200 nM | IC50 (SGC-7901 [1]): 30100 nM | IC50 (HT-1080): 18400 nM

COc1cc(-c2n[nH]cc2-c2ccc(F)c(F)c2)cc(OC)c1OC
IC50 (KB): 32800 nM | IC50 (SGC-7901 [1]): 14000 nM | IC50 (HT-1080): 19300 nM

COc1ccc(-c2c(-c3cc(OC)c(OC)c(OC)c3)cnn2C(C)=O)cc1
IC50 (KB): 23 nM | IC50 (SGC-7901 [1]): 31 nM | IC50 (HT-1080): 14 nM

COc1ccc(-c2cnn(C(C)=O)c2-c2cc(OC)c(OC)c(OC)c2)cc1OC
IC50 (KB): 4580 nM | IC50 (SGC-7901 [1]): 4820 nM | IC50 (HT-1080): 1330 nM

COc1ccc(-c2cn[nH]c2-c2cc(OC)c(OC)c(OC)c2)cc1O
IC50 (KB): 23 nM | IC50 (SGC-7901 [1]): 31 nM | IC50 (HT-1080): 30 nM

COc1ccc(-c2c[nH]nc2-c2cc(OC)c(OC)c(OC)c2)cc1OC
IC50 (KB): 5440 nM | IC50 (SGC-7901 [1]): 36500 nM | IC50 (HT-1080): 4840 nM

COc1cc(-c2n[nH]cc2-c2ccc(OCc3ccccc3)cc2)cc(OC)c1OC
IC50 (KB): 6720 nM | IC50 (SGC-7901 [1]): 13000 nM | IC50 (HT-1080): 8130 nM

CCOc1ccc(-c2n[nH]cc2-c2cc(OC)c(OC)c(OC)c2)cc1
IC50 (KB): 65 nM | IC50 (SGC-7901 [1]): 15 nM | IC50 (HT-1080): 21 nM

CCOc1ccc(-c2c(-c3cc(OC)c(OC)c(OC)c3)cnn2C(C)=O)cc1
IC50 (KB): 110 nM | IC50 (SGC-7901 [1]): 200 nM | IC50 (HT-1080): 21 nM
